Where two headings read alike, the source gives them in different places.
Experiments:
PI3K-alpha = PI3K-alpha (Homo sapiens, UniProt P42336); test: PI3K-alpha fluorescence polarization assay; type: biochemical; conditions: 20 μM PIP2, 25 μM ATP; read-out: PI3Kα IC50
How it was run: (§1)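 PIP2 (diC8) and ATP substrate with PI3K in 20 mM HEPES pH 7.5, 2 mM MgCl2, 0.05% CHAPS, 0.01% βME; 1% DMSO final; 30–60 min reaction. Stopped with EDTA plus GST-GRP (70 nM) and TAMRA probe (10 nM); FP (mP) read after 30–90 min, with no-enzyme controls.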

MDA468 = test: In vitro cell growth assay (MTS), MDA468; type: cell-based; conditions: 72 h, human breast line MDA468, three days after drug treatment, read-out: MDA IC50
mTOR [1] = target: T1, mTOR (Homo sapiens, UniProt P42345); test: mTOR enzyme assay (DELFIA, purified FLAG-TOR, His6-S6K substrate); type: biochemical; design: FLAG; conditions: 100 μM ATP, 2 hours
PI3K-gamma = PI3K-gamma (Homo sapiens, UniProt P48736); test: PI3K-gamma fluorescence polarization assay; type: biochemical; conditions: 20 μM PIP2, 25 μM ATP; read-out: PI3Kγ IC50
How it was run: as §1

LNCap = test: In vitro cell growth assay (MTS), LNCap; type: cell-based; conditions: LNCaP, 72 h, human prostate line, three days after drug treatment
[2] = tested on: human tumor xenograft models; conditions: cited from earlier work
[3] = tested on: acute lymphoblastic leukemia; conditions: in vivo; cited from earlier work
hSMG-1 = hSMG-1 (Homo sapiens, UniProt Q96Q15); conditions: read-out: hSMG-1 kinase activity IC50; cited from earlier work
mTOR [4] = target: T1, mTOR; conditions: read-out: mTOR IC50; mTOR complexes (PI103), mTOR enzyme (ZSTK474); cited from earlier work

Chain of PI3K-gamma (P48736 whole entry, species assumed): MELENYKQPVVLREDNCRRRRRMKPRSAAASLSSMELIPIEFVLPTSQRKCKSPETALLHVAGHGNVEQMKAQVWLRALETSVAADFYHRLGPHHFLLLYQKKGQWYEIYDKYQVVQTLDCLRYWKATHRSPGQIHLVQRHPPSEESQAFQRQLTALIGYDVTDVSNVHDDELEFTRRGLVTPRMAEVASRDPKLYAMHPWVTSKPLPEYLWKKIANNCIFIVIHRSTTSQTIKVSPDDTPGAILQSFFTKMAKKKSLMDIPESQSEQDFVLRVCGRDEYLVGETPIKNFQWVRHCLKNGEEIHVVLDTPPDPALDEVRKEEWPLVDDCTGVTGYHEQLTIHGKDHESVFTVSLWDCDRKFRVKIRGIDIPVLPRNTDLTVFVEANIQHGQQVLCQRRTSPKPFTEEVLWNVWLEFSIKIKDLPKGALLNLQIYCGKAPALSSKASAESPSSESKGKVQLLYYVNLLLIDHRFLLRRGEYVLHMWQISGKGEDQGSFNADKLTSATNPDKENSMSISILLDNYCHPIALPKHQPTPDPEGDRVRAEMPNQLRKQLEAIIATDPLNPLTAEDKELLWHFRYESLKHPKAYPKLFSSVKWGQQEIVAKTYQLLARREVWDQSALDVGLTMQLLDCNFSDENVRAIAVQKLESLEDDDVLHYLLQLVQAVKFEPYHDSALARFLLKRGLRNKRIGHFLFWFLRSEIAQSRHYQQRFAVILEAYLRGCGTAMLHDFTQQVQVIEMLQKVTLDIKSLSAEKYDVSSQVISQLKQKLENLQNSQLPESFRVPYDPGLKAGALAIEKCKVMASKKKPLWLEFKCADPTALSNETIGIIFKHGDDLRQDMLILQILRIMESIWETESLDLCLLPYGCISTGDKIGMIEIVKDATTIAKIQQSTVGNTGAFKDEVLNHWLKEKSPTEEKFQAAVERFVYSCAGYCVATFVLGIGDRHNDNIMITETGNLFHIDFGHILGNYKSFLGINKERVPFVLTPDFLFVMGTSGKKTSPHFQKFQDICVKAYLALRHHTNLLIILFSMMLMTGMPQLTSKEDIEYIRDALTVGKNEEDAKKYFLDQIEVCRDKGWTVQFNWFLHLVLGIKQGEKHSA
Chain of PI3K-alpha (P42336 whole entry, species assumed): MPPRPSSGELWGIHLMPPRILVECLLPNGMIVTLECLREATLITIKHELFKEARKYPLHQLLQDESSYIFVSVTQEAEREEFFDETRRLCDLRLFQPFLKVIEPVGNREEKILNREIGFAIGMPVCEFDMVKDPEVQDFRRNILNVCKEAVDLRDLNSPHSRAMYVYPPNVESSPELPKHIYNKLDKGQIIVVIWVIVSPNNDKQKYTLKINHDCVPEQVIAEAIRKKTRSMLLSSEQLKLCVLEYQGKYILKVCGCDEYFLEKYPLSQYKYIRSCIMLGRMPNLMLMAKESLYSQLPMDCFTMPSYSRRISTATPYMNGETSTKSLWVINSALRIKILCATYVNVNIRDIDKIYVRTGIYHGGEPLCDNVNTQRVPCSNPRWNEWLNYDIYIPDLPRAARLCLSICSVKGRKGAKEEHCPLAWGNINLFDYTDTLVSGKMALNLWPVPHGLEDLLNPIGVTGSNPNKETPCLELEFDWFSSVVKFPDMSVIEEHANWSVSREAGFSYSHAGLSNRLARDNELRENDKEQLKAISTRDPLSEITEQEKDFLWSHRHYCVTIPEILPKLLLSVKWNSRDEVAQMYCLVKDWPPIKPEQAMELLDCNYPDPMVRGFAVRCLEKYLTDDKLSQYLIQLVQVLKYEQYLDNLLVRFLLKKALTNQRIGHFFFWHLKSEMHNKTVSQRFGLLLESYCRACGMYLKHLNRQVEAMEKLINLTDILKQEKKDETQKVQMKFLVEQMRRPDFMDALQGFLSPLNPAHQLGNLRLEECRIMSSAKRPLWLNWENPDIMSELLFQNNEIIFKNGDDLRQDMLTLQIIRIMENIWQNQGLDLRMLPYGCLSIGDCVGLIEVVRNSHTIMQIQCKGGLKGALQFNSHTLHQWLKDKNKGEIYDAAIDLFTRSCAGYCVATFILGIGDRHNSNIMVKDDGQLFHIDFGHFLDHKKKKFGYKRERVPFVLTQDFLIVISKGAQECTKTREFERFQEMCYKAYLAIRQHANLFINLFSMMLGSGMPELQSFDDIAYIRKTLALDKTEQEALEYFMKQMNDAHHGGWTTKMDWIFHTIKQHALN
Chain of PI3K-alpha (P27986 whole entry partner, species assumed): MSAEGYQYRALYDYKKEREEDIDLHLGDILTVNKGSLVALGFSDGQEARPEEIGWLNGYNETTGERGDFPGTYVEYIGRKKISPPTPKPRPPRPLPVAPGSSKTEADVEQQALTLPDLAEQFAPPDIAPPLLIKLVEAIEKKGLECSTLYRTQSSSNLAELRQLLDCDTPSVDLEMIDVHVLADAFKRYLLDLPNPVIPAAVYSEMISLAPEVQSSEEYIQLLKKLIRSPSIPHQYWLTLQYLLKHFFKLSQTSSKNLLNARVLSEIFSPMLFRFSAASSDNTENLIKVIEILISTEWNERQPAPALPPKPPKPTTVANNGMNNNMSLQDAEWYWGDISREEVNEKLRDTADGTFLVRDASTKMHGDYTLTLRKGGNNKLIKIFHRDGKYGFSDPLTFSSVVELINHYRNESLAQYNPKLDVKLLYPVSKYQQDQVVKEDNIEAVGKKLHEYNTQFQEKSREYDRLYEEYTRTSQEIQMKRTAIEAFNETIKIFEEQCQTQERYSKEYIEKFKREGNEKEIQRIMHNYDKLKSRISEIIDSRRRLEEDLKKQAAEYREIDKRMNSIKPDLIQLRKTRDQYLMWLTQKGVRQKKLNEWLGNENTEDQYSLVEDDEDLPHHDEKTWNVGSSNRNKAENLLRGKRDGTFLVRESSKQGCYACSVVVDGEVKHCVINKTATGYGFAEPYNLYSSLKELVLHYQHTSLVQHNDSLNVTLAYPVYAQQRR

Row | SMILES | IC50 (PI3K-alpha) [nM] | IC50 (MDA468) [nM] | IC50 (mTOR [1]) [nM] | IC50 (PI3K-gamma) [µM] | IC50 (LNCap) [nM] | further results
1 | CN1CCN(Cc2ccc(NC(=O)Nc3ccc(-c4nc(N5C6CCC5COC6)cc(N5C[C@H]6C[C@@H]5CO6)n4)cc3)cc2)CC1 [1-{4-[(4-methylpiperazin-1-yl)methyl]phenyl}-3-(4-{4-[(1R,4R)-2-oxa-5-azabicyclo[2.2.1]hept-5-yl]-6-(3-oxa-8-azabicyclo[3.2.1]oct-8-yl)pyrimidin-2-yl}phenyl)urea] | 1190 | 190 | 9.9 | 7.59 | 180 | –
2 | CN1CCN(Cc2ccc(NC(=O)Nc3ccc(-c4nc(NC5CCOCC5)cc(N5C6CCC5COC6)n4)cc3)cc2)CC1 [1-{4-[(4-methylpiperazin-1-yl)methyl]phenyl}-3-{4-[4-(3-oxa-8-azabicyclo[3.2.1]oct-8-yl)-6-(tetrahydro-2H-pyran-4-ylamino)pyrimidin-2-yl]phenyl}urea] | 931 | 65 | 6.3 | 2.18 | 40 | –
3 | CN1CCN(Cc2ccc(NC(=O)Nc3ccc(-c4nc(NCCS(C)(=O)=O)cc(N5C6CCC5COC6)n4)cc3)cc2)CC1 [1-{4-[(4-methylpiperazin-1-yl)methyl]phenyl}-3-{4-[4-{[2-(methylsulfonyl)ethyl]amino}-6-(3-oxa-8-azabicyclo[3.2.1]oct-8-yl)pyrimidin-2-yl]phenyl}urea] | 3980 | 500 | 17.5 | 10.8 | 400 | –
4 | CC(C)Nc1cc(N2C3CCC2COC3)nc(-c2ccc(NC(=O)Nc3ccc(CN(C)C)cc3)cc2)n1 [1-{4-[(dimethylamino)methyl]phenyl}-3-(4-{4-[(1-methylethyl)amino]-6-(3-oxa-8-azabicyclo[3.2.1]oct-8-yl)pyrimidin-2-yl}phenyl)urea] | 1190 | 120 | 2.65 | 3.88 | 120 | –
5 | CN(C)Cc1ccc(NC(=O)Nc2ccc(-c3nc(N4C5CCC4COC5)cc(N4C[C@@H]5C[C@H]4CO5)n3)cc2)cc1 [1-{4-[(dimethylamino)methyl]phenyl}-3-(4-{4-[(1S,4S)-2-oxa-5-azabicyclo[2.2.1]hept-5-yl]-6-(3-oxa-8-azabicyclo[3.2.1]oct-8-yl)pyrimidin-2-yl}phenyl)urea] | 1240 | 150 | 16 | ≥ 10 | 60 | –
6 | C[C@@H]1COCCN1c1cc(N2C3CCC2COC3)nc(-c2ccc(NC(=O)Nc3ccc(C(=O)N(C)C)cc3)cc2)n1 [N,N-dimethyl-4-{[(4-{4-[(3R)-3-methylmorpholin-4-yl]-6-(3-oxa-8-azabicyclo[3.2.1]oct-8-yl)pyrimidin-2-yl}phenyl)carbamoyl]amino}benzamide] | 108 | 0.8 | 0.44 | 1.64 | ≤ 0.8 | –
7 | Cn1c(=O)n(-c2ccc(C(C)(C)C#N)cc2)c2c3cc(-c4cnc5ccccc5c4)ccc3ncc21 [NVP-BEZ-235, 2-methyl-2-(4-(3-methyl-2-oxo-8-(quinolin-3-yl)-2,3-dihydro-1H-imidazo[4,5-c]quinolin-1-yl)phenyl)propanenitrile] | – | – | – | – | – | activity against human tumor models ([2]; PC-3 and U-87 xenografts): demonstrated activity
8 | Oc1cccc(-c2nc(N3CCOCC3)c3oc4ncccc4c3n2)c1 [PI103, 3-(4-(4-morpholinyl)pyrido[3′,′:4,5]furo[3,2-d]pyrimidin-2-yl)phenol] | – | – | – | – | – | activity against human tumor models ([2]; I.P. dosing in mice, U87MG, PC3, MDA-MB-468, MDA-MB-435, HCT 116, SKOV3, IGROV-1): demonstrated activity
9 | CO[C@H]1C[C@@H]2CC[C@@H](C)[C@@](O)(O2)C(=O)C(=O)N2CCCC[C@H]2C(=O)O[C@H]([C@H](C)C[C@@H]2CC[C@@H](OC(=O)C(C)(CO)CO)[C@H](OC)C2)CC(=O)[C@H](C)/C=C(\C)[C@@H](O)[C@@H](OC)C(=O)[C@H](C)C[C@H](C)/C=C/C=C/C=C/1C [Torisel] | – | – | – | – | – | activity in NOS/SCID xenograft mouse model of acute lymphoblastic leukemia [3]: active
10 | COC[C@H]1OC(=O)c2coc3c2[C@@]1(C)C1=C(C3=O)[C@@H]2CCC(=O)[C@@]2(C)C[C@H]1OC(C)=O [Wortmannin] | – | – | – | – | – | IC50 (hSMG-1): ~60 nM
11 | FC(F)c1nc2ccccc2n1-c1nc(N2CCOCC2)nc(N2CCOCC2)n1 [ZSTK474, 2-(2-difluoromethylbenzoimidazol-1-yl)-4,6-dimorpholino-1,3,5-triazine] | – | – | – | – | – | tumor growth in mouse human xenograft cancer models ([2]; chronic oral administration, 400 mg/kg, A549, PC-3, WiDr): completely inhibited growth; IC50 (mTOR [4]): > 10 µM
